According to US10138242B2, “Pyrazolopyridine derivatives and their use in therapy” (HELMHOLTZ ZENTRUM MUENCHEN—DEUTSCHES FORSCHUNGSZENTRUM FUER …, priority 2015, dated 2018):

What was measured:
[1] = target: PEX5-PEX14 complex (biotin-coupled PEX5 peptide, His-tagged T. brucei PEX14) (Trypanosoma brucei brucei, UniProt Q38CL4); assay: biochemical; format: binding; settings: 30 nM PEX5, 30 nM PEX14; quadruplicate; read-out: AlphaScreen EC50 [μM] (±SD)
From the text: (§1) The assay uses two types of beads: donor beads are coupled with streptavidin, and acceptor beads are coupled with an anti His-tag antibody. Upon excitation with light of a wavelength of 680 nm the donor beads produce reactive oxygen species that travel in solution only for a limited distance. If the acceptor beads are within that travel distance, it will absorb the reactive oxygen and emit light in the range of 520-620 nm. […] Thus, PEX5-PEX14 complex dissociation by a ligand caused decrease in light emission as the donor and acceptor beads were separated. Typically, we used 30 nM PEX5, 30 nM PEX14 and bead concentrations of 5 μg/mL. The PEX5-PEX14 complex was incubated with varying concentrations of inhibitor for 1 hour. Next, the beads were added and the system allowed to equilibrate for another hour. The raw data were fitted to four parameter sigmoidal curves by Origin software and EC50 values calculated. Each measurement was performed in quadruplicate and every experiment was accompanied with blank and reference samples (using non-biotynylated PEX5 peptide as a binding competitor).

[2] = tested on: T. brucei brucei bloodstream form parasites (strain Lister 427); assay: Antitrypanosomal activity assay (resazurin; FIG. 2); format: cell-based; settings: Trypanosoma brucei; 66 h + 6 h resazurin
Protocol: (A) The trypanosoma cell count and growth were evaluated at different doses of compounds of the invention.
Antitrypanosomal activity was tested on T. brucei brucei bloodstream from parasites (strain—Lister 427, VATMITat 1.2). Stock solutions of compounds (50 mM) were prepared in DMSO. Two fold serial dilutions of each compound (10 wells in each row) were prepared in 96 well plates in HMI111 medium (100 μl/well; quadruplicates; cf. also Hirumi et al., J. Parasitol. 75 (1989), 985-989). One well without compound, and one well with media alone were included in each row. […] The plates were incubated for 66 hours at 37° C. in the incubator with 5% CO2. 20 μl resazurin (Sigma, 0.125 mg/ml in Hanks Balanced Salt Solution) was added to all wells and the plate was further incubated for 6 hours. Change in color of resazurin (blue to pink) by living cells was measured with a 96 well plate reader (excitation at 530 nm, emission at 585 nm, filter cut-off: 570 nm). Percent inhibition values were calculated by setting the well without compound to “0% inhibition”.

[3] = tested on: PEX5-PEX14 complex (biotin-coupled PEX5 peptide, His-tagged T. brucei PEX14); assay: biochemical; format: binding; settings: 30 nM PEX5, 30 nM PEX14; quadruplicate; read-out: AlphaScreen EC50 [μM] (±SD)
From the text: as §1

PEX5-PEX14 complex (biotin-coupled PEX5 peptide, His-tagged T. brucei PEX14) (Trypanosoma brucei brucei, UniProt Q38CL4), sequence (Q38CL4 1-366, one chain of several): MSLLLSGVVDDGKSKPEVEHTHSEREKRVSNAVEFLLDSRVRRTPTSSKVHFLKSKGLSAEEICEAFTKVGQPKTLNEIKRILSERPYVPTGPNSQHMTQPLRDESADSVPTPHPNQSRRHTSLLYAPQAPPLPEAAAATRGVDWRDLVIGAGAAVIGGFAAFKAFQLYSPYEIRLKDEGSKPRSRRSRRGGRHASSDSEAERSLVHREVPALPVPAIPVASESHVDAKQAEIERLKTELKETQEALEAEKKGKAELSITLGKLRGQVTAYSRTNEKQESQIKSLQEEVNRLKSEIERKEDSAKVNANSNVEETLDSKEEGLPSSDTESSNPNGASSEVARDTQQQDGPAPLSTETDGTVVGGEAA

Row | EC50 [3] [µM] | Structure (SMILES) | EC50 [1] [µM] | IC50 [2] [µM]
1 |  | COc1ccc(CN2CCc3c(c(C(=O)NCc4cccc5[nH]ccc45)nn3CCO)C2)c2ccccc12 [Compound 60] | 20.2 | 5.6
2 |  | COc1ccc(CN2CCc3c(c(C(=O)NCc4cccc5cccnc45)nn3CCO)C2)c2ccccc12 [Compound 61] | 24.1 | 7
3 |  | COc1ccc(CN2CCc3c(c(C(=O)NCc4cccc(C)c4)nn3CCO)C2)c2ccccc12 [Compound 62] | 38.1 | 4.5
4 |  | COc1ccc(CN2CCc3nn(CCO)c(C(=O)NCc4cccc5ccccc45)c3C2)c2ccccc12 [Compound 90] | 66.1 | 3.3
5 |  | COc1ccc(CN2CCc3nn4c(c3C2)C(=O)N(Cc2cccc3ccccc23)CC4)c2ccccc12 [Compound 91] | 19.2 | 6.4
6 |  | COc1ccc(CN2CCc3c(c(C(=O)NCc4cccc5ccccc45)nn3CCNC(=N)N)C2)c2ccccc12 [Compound 94] | 1.4 | 0.74
7 |  | COc1ccc(CN2CCc3c(c(C(=O)NCc4cccc5ccccc45)nn3CCN)C2)c2c1CCCC2 [Compound 100] | 4.62 | 0.05
8 |  | NCCn1nc(C(=O)NCc2cccc3ccccc23)c2c1CCN(Cc1ccc(Cl)cc1)C2 [Compound 103] | 10 | 0.18
9 |  | COc1ccc(CN2CCc3c(c(C(=O)NCc4cccc5ccccc45)nn3CC(O)CN)C2)c2ccccc12 (stereo not shown) [Compound 104] | 10.6 | 0.2
10 |  | NCCn1nc(C(=O)NCc2cccc3ccccc23)c2c1CCN(Cc1ccc(Cl)c(Cl)c1)C2 [Compound 105] | 11.6 | 0.34
11 |  | COc1ccc2c(CN3CCc4c(c(C(=O)NCc5cccc6ccccc56)nn4CCO)C3)c[nH]c2c1 [Compound 106] | 25 | 4.6
12 |  | COc1ccc(CN2CCc3c(c(C(=O)NCc4cc(F)cc5ccccc45)nn3CCO)C2)c2ccccc12 [Compound 107] | 28.7 | 2.9
13 |  | COc1ccc2[nH]c(CN3CCc4c(c(C(=O)NCc5cccc6ccccc56)nn4CCO)C3)cc2c1 [Compound 110] | 43.8 | 2.6
14 | 52.9 | COc1ccc2c(OC)ccc(CN3CCc4c(c(C(=O)NCc5cccc6ccccc56)nn4CCO)C3)c2c1 [Compound 111] |  | 
15 |  | COc1ccc2cc(CN3CCc4c(c(C(=O)NCc5cccc6ccccc56)nn4CCO)C3)ccc2c1 [Compound 114] | 121 | 3.9
16 |  | O=C(NCc1cccc2ccccc12)c1nn(CCO)c2c1CN(Cc1ccc(F)c3ccccc13)CC2 [Compound 115] | 121 | 5.9
